The source of these data is patent publication US20100178330A1, “ASYMMETRIC LIPOSOMES AND USES IN MEDICAL FIELD THEREOF” (priority 2007, published 2010).

Assay [1] concerns M. tuberculosis H37Rv infected dTHP-1 cells. The assay is described as follows: Phagolysosome maturation: mycobacteria in acid compartments (Lyso Tracker Red / auramin confocal microscopy). Format: cell-based. The following applies: 3 mM EGTA added to cells stimulated with PS/PA liposomes; FIG. 7.
Assay [2] has the same test system. As to the kind of experiment: Phagolysosome maturation: mycobacteria in LAMP-1 expressing compartments (anti-LAMP-1 / auramin confocal microscopy). As to conditions: EGTA added to cells stimulated with PS/PA liposomes; FIG. 8. The assay is classed as cell-based.

For the molecule `O=C(O)CN(CCOCCOCCN(CC(=O)O)CC(=O)O)CC(=O)O` [EGTA], the “effect on PS/PA liposome induced phagosome acidification” value in assay [1] was “inhibits the acidification process of phagosome restoring the initial conditions”. In addition, the “effect on PS/PA liposome induced phagolysosome maturation (LAMP-1)” value in assay [2] is on record as “inhibits”.
